Experimental data taken from patent publication US20230399325A1, “SUCCINATE AND CRYSTAL FORM THEREOF AS THERAPEUTICS” (AUCENTRA THERAPEUTICS PTY LTD, priority 2020, published 2023).
Read-outs that look alike come from different tables or passages of the source.

Key:
MV-4-11 = assay: Thymidine incorporation (3H-TdR) anti-proliferative assay, MV-4-11; format: cell-based; conditions: Homo sapiens, MV4-11; MV-4-11, Leukemia
Method: (§1) The thymidine incorporation (3H-TdR) assay was used to assess the anti-proliferative effect of the Compound A succinate on tumor cell lines. The cells were treated with a series of concentrations of Compound A succinate for 24 hours; 3H-TdR was added, and the cells were continued in the incubator for further 48 hours. Scintillation fluid was added, read on a liquid scintillation counter, and the inhibiting cell growth by 50% (IC50) was calculated as shown in Table 5.

[1] = Pharmacokinetic study of Compound A succinate in cynomolgus monkeys; format: in vivo; conditions: for AUC(0-inf) / AUC(0-t) / Cmax / clearance / half-life / Vd: cynomolgus monkey, plasma; for Vd: read-out: Vz; for F: succinate
Method: In a separate study, four cynomolgus monkeys were divided into two groups (n=2 per group), and given Compound A succinate at 2 mg/kg by i.v. and 24 mg/kg by i.g., respectively. The plasma samples were collected, analyzed and PK parameters were calculated as above.

[2] = system: A2780 ovarian cancer cells; assay: Subcutaneous A2780 ovarian cancer xenograft; format: in vivo, female BALB/c nude mice; conditions: for Tumor volume (±S): 14 days; for Mean tumor growth inhibition (T/C): day 14
Method: Compound A succinate was also assessed for in vivo anti-tumor activity in subcutaneous xenografts. Briefly, female BALB/c nude mice were inoculated with A2780 ovarian cancer cells; when the mean tumour volume reached 150-200 mm^3, animals were randomized to groups. The animals (n=8 per group) were treated orally with vehicle (ultra-pure water), Compound A succinate (62.5, 125 or 250 mg/kg), or Palbociclib (75 mg/kg) once a day for 14 consecutive days. Mice were observed daily for signs of toxicity and weight loss, and tumour volume measured every other day. […] Palbociclib was efficacious at 75 mg/kg, resulting in T/C of 42.8% (Table 6).

MDA-MB-435S = assay: Thymidine incorporation (3H-TdR) anti-proliferative assay, MDA-MB-435S; format: cell-based; conditions: Homo sapiens, Breast cancer
Method: as §1

MOLM-13 = assay: Thymidine incorporation (3H-TdR) anti-proliferative assay, MOLM-13; format: cell-based; conditions: Homo sapiens; MOLM-13, Leukemia
Method: as §1

[3] = Dynamic solubility in water and FaSSIF at 37° C.; format: physicochemical; conditions: for solubility at 1 h / solubility at 2 h / solubility at 4 h / solubility at 24 h: thermodynamic from solid, read-out: S: Solubility
Raji = assay: Thymidine incorporation (3H-TdR) anti-proliferative assay, Raji; format: cell-based; conditions: Homo sapiens, Lymphoma
Method: as §1

U-87MG = assay: Thymidine incorporation (3H-TdR) anti-proliferative assay, U-87MG; format: cell-based; conditions: Homo sapiens, Brain tumor
Method: as §1

SK-OV-3 = assay: Thymidine incorporation (3H-TdR) anti-proliferative assay, SK-OV-3; format: cell-based; conditions: Homo sapiens; SK-OV-3, Ovarian cancer
Method: as §1

[4] = Hygroscopicity by dynamic moisture adsorption (DVS); format: physicochemical; conditions: for Hygroscopicity: 25° C./80% RH, succinate
Method: Dynamic moisture adsorption (DVS) was used to evaluate the hygroscopicity of compound A and salt forms under the condition of 25° C. and 80% RH.

[5] = Solid-state stability, 14 days, HPLC; format: physicochemical
Method: Compound A salts and Compound A were tested for their solid-state stability under the conditions of 25° C./60% RH and 40° C./75% RH.

[6] = system: COLO 205 colorectal tumor xenograft; assay: COLO 205 colorectal tumor xenograft; format: in vivo, mice; conditions: for Tumor volume (±S): 21 days; for Inhibition of tumor growth (T/C): day 21, succinate
Method: A separate study of Compound A succinate was conducted in COLO 205 colorectal tumor xenograft. The tumor-bearing mice (n=8) were treated orally with vehicle (ultra-pure water), or Compound A succinate (50 or 100 mg/kg) once daily for 21 days. As a positive control chemotherapy 5-FU (15 mg/kg) was given intraperitoneally. […] 5-FU was also effective with a T/C=47.2% (Table 7).

PANC-1 = assay: Thymidine incorporation (3H-TdR) anti-proliferative assay, PANC-1; format: cell-based; conditions: Homo sapiens; PANC-1, Pancreatic cancer
Method: as §1

PC-3 = assay: Thymidine incorporation (3H-TdR) anti-proliferative assay, PC-3; format: cell-based; conditions: Homo sapiens; PC-3, Prostate cancer
Method: as §1

ZR-75-1 = assay: Thymidine incorporation (3H-TdR) anti-proliferative assay, ZR-75-1; format: cell-based; conditions: Homo sapiens; ZR-75-1, Breast cancer
Method: as §1

COLO-205 = assay: Thymidine incorporation (3H-TdR) anti-proliferative assay, COLO-205; format: cell-based; conditions: Homo sapiens; COLO-205, Colon cancer
Method: as §1

[7] = iv, i.v. 2 mg/kg, female cynomolgus monkeys
[8] = iv, i.v. 2 mg/kg, male cynomolgus monkeys
[9] = po, i.g. 24 mg/kg, female cynomolgus monkeys
[10] = po, i.g. 24 mg/kg, male cynomolgus monkeys

CCN1CCN(Cc2ccc(Nc3ncc(F)c(-c4sc(NC5CCCC5)nc4C)n3)nc2)CC1.O=C(O)CCC(=O)O [Compound A succinate, N-Cyclopentyl-5-(2-((5-((4-ethylpiperazin-1-yl)methyl)pyridin-2-yl)amino)-5-fluoropyrimidin-4-yl)-4-methylthiazol-2-amine succinate]
IC50 (MV-4-11): 88.8 nM | AUC(0-inf) [1, 7]: 1190 ng·h/mL | AUC(0-t) [1, 7]: 1170 ng·h/mL | Cmax [1, 7]: 371 ng/mL | clearance [1, 7]: 31 mL/min/kg | half-life [1, 7]: 4.7 h | Vd [1, 7]: 13.2 L/kg | AUC(0-inf) [1, 8]: 872 ng·h/mL | AUC(0-t) [1, 8]: 843 ng·h/mL | Cmax [1, 8]: 240 ng/mL | clearance [1, 8]: 39.1 mL/min/kg | half-life [1, 8]: 5.3 h | Vd [1, 8]: 17.7 L/kg | AUC(0-inf) [1, 9]: 7740 ng·h/mL | AUC(0-t) [1, 9]: 7700 ng·h/mL | Cmax [1, 9]: 532 ng/mL | half-life [1, 9]: 6 h | AUC(0-inf) [1, 10]: 7420 ng·h/mL | AUC(0-t) [1, 10]: 7370 ng·h/mL | Cmax [1, 10]: 593 ng/mL | half-life [1, 10]: 6 h | F ([1]; i.g. 24 mg/kg, female cynomolgus monkeys): 54.9% | F ([1]; i.g. 24 mg/kg, male cynomolgus monkeys): 72.8% | Tumor volume (±S) ([2]; 62.5 mg/kg orally once a day): 1789.5 ± 131.5 mm^3 | Mean tumor growth inhibition (T/C) ([2]; 62.5 mg/kg orally once a day): 44.8% | Tumor volume (±S) ([2]; 125 mg/kg orally once a day): 1009.6 ± 87.0 mm^3 | Mean tumor growth inhibition (T/C) ([2]; 125 mg/kg orally once a day): 70.8% | Tumor volume (±S) ([2]; 250 mg/kg orally once a day): 546.4 ± 71.1 mm^3 | Mean tumor growth inhibition (T/C) ([2]; 250 mg/kg orally once a day): 86.2% | IC50 (MDA-MB-435S): 37.3 nM | IC50 (MOLM-13): 260 nM | solubility compared to Compound A free base ([3]; both FaSSIF and water): significantly increased | solubility at 1 h ([3]; FaSSIF): 8200 µg/mL | solubility at 2 h ([3]; FaSSIF): 8100 µg/mL | solubility at 4 h ([3]; FaSSIF): 8100 µg/mL | solubility at 24 h ([3]; FaSSIF): 1100 µg/mL | solubility at 1 h ([3]; water, H2O): 2000 µg/mL | solubility at 2 h ([3]; water, H2O): 2000 µg/mL | solubility at 4 h ([3]; water, H2O): 2100 µg/mL | solubility at 24 h ([3]; water, H2O): 2300 µg/mL | IC50 (Raji): 608 nM | IC50 (U-87MG): 42.6 nM | IC50 (SK-OV-3): 812 nM | Moisture absorbed at 25° C./80% RH [4]: 1.1% | Hygroscopicity ([4]; listed as Succinate): Slightly hygroscopic | Hygroscopicity [4]: minimal hygroscopicity | Purity ([5]; 25° C./60% RH): 97.9 area % | Relative purity ([5]; 25° C./60% RH): 100.0 % of initial | Purity ([5]; 40° C./75% RH): 97.9 area % | Relative purity ([5]; 40° C./75% RH): 100.0 % of initial | Tumor volume (±S) ([6]; 50 mg/kg orally once daily): 941.10 ± 80.90 mm^3 | Inhibition of tumor growth (T/C) ([6]; 50 mg/kg orally once daily, listed as compound A Succinate): 36.26% | Inhibition of tumor growth (T/C) ([6]; 50 mg/kg orally once daily): 36.3% | Tumor volume (±S) ([6]; 100 mg/kg orally once daily): 443.72 ± 40.49 mm^3 | Inhibition of tumor growth (T/C) ([6]; 100 mg/kg orally once daily, listed as compound A Succinate): 74.69% | Inhibition of tumor growth (T/C) ([6]; 100 mg/kg orally once daily): 74.7% | IC50 (PANC-1): 812 nM | IC50 (PC-3): 168 nM | IC50 (ZR-75-1): 35.7 nM | IC50 (COLO-205): 839 nM
